# According to patent US20060292072A1, “Agents for neutron capture therapy” (Pharmacyclics, Inc., priority 2001, published 2006):
# Tests used:
# [1] = tested on: tumors; settings: prior art statement; cited from earlier work
# [2] = tested on: V79 Chinese hamster cells; assay: V79 Chinese hamster cell survival assay after neutron irradiation; assay type: cell-based; settings: 30 ppm, incubated twelve hours; neutron beam 2.8×10^11 n/cm^2 min; colony growth 5-6 days
# Procedure: In vitro activity for neutron capture therapy is determined, e.g., by measuring the effect of low-level, thermal neutron irradiation on the V79 […] cell line in culture, and measuring resultant cytotoxicity, for example as described by Fairchild et al., Cancer Research 50. After the V79 cells are exposed to a neutron capture agent, they are irradiated with a neutron beam at a fluence rate of 2.8×10^11 n/cm^2 min. The cells are plated for undisturbed colony growth for 5-6 days, after which the remaining cell population is assessed.
# The effect of neutron irradiation on V79 Chinese hamster cells incubated for twelve hours with ^157Gd-Tex is determined by a modification of the procedure originally described by Fairchild et al., Cancer Research 50 (1990). Three sets of sample plates of V79 cells are prepared. The first set (control cells) are suspended with 30 ppm ^157Gd-Tex in growth medium. The second set (washed cells) are suspended with 30 ppm ^157Gd-Tex in growth medium, then washed 3 times with PBS, trypsinized and harvested with gadolinium from reagents prior to suspension. The third set (ambient cells) are suspended in a 30 ppm ^157Gd containing medium.
# All of the cells are irradiated within 1-2 hours following suspension in growth medium at a population density of 3.0×10^5 cells/ml. The neutron beam fluence rate at the center of the sample is 2.8×10^11 n/cm^2 min. […]
# [3] = tested on: Glioma 261 tumor; assay: Neutron capture activity in mice with intracerebral Glioma 261 tumor; assay type: in vivo; settings: group A: Gd-Tex intravenous plus 1.2×10^12 neutrons/cm^2 (20 Gy), versus groups B-E; female C57BL/6 mice, up to 100 days
# Procedure: In vivo activity for neutron capture therapy is determined, e.g., by post-mortem histological examination of brain tumor tissue by hematoxylin and eosin, as described in Saris et al., Cancer Research, vol. 52 (1992). The antitumor effects of neutron capture therapy are evaluated by implanting Glioma 261 tumor fragments into the brain of a mouse. Approximately 3 hours after administration of a neutron capture agent to be tested, the head is irradiated a with 1.2×10^12 neutron beam (resulting in a planned dose of […]). After 100 days the mouse is sacrificed and the tumorous and non-tumorous sections of the brain are stained with hematoxylin and eosin for histologic examination. The tumor bearing and control brain tissue sections are compared.
# This procedure is a modification of a procedure initially described by Saris et al., Cancer Research, vol. 52 (1992). Glioma 261 tumor fragments are injected approximately 2 mm deep to the dura of the brain in 42 female C57BL/6 mice. The mice are randomized into 5 groups. The mice in group A receive […] mg/kg Gd-Tex and 1.2×10^12 neutrons/cm^2 resulting in 20 Gy. Group B mice receive 1.2×10^12 neutrons/cm^2 resulting in 20 Gy. The mice in group C receive […] mg/kg Gd-Tex and 10 Gy of photon irradiation. Group D receives […] mg/kg of Gd-Tex alone. Group E receives no treatment. […]
# [4] = prior art statement; cited from earlier work
Molecule,selectivity for tumors / accumulation in tumor tissue [1],other results
"O=C([O-])CN(CCN(CC(=O)[O-])CC(=O)O)CCN(CC(=O)[O-])CC(=O)O.[Gd+3] [Gd-DTPA, gadolinium diethylenetriamine-pentaacetic acid]",not found to be tumor selective,–
N[C@@H](Cc1ccc(B(O)O)cc1)C(=O)O [p-boron-phenylalanine],limited selectivity for tumors,tumor/blood concentration ratios [1]: poor tumor/blood concentration ratios
"^157Gd complex of 4,5-diethyl-10,23-dimethyl-9,24-bis(3-hydroxy propyl)-16,17-bis[2-[2-(2-methoxyethoxy)ethoxy]ethoxy]pentaazapentacyclo[20.2.1.1^3,6.1^8,11.0^14,19]heptacos a-1,3,5,7,9,11(27),12,14,16,18,20,22(25),23-tridecaene bis acetate [^157Gd-Tex]",–,survival of the control cells compared with the washed or ambient cells [2]: significantly higher
"bis(acetato-O)[9,10-diethyl-20,21-bis[2-[2-(2-methoxyethoxy)ethoxy]ethoxy]-4,15-dimethyl-8,11-imino-3,6:16,13-dinitrilo-1,18-benzodiazacycloeicosine-5,14-dipropanolato-N1,N18,N23,N24,N25]gadolinium [Gd-Tex]",–,survival rate [3]: greater survival rate than any of the other groups
"O=C([O-])CN1CCN(CC(=O)[O-])CCN(CC(=O)O)CCN(CC(=O)[O-])CC1.[Gd+3] [Gd-DOTA, gadoteric acid]",not found to be tumor selective,–
"tetrakiscarborane carboxylate ester of 2,4-(a,b-dihydroxyethyl)deuteroporphyrin [BOPP]",poor selectivity for tumors,phototoxicity [4]: phototoxic
